In brackets after ≈: the same amount, converted by molar mass.
conditions: buffer; pH 7.4; 200.0 µM

solubility kinetic [µg/mL]	SMILES
> 48.4	CCN(C(=O)CSc1ncccc1C(=O)O)C1CCCCC1
61.7 (≈ 145 µM)	CN(Cc1ccccc1)S(=O)(=O)c1ccc(NC(=O)c2ccccc2C(=O)O)cc1
17.3	Cc1cc[n+](-c2ccccc2)c2ccccc12.[Cl-]
15.2 (≈ 50.8 µM)	COc1ccc(C(=O)NC(C)CCc2ccccc2)c(O)c1 (stereo not drawn)
3.1 (≈ 9.41 µM)	O=C(c1ccccc1)N1C(=O)C(c2ccccc2)Oc2ccccc21 (stereo not drawn)
35.4 (≈ 102 µM)	COc1ccc2nc(S(=O)Cc3ncc(C)c(OC)c3C)[nH]c2c1 (stereo not drawn)
8.3 (≈ 24.2 µM)	CC1(C)CN=C(N(C(=O)Nc2ccccc2)c2ccccc2F)S1
> 31.8	COCCNC(=O)Nc1ccc(F)cc1
38.3 (≈ 147 µM)	CCOc1ccc(N2C(=O)CSC2=NC#N)cc1
10.1 (≈ 31.7 µM)	CC(C)(C)c1ccc(C(=O)NC(=S)N2CCCCCC2)cc1
< 0.7	Cc1ccccc1C(=O)N1c2ccccc2OCC1C(C)(C)C (stereo not drawn)
< 0.4	Cc1ccc(C(=O)Nc2nc3ccc(S(C)(=O)=O)cc3s2)cc1C
< 0.2	N#Cc1c(C(F)(F)F)cc(-c2cccs2)nc1N1CCCCC1
13.2 (≈ 46.3 µM)	O=C(CCl)NCc1cc(-c2ccc(Cl)cc2)no1
67.3 (≈ 142 µM)	Cc1cc(NS(=O)(=O)c2ccc(NC(=O)CNS(=O)(=O)c3ccccc3)cc2)nc(C)n1
8.7 (≈ 37.5 µM)	O=C(Nc1cnccn1)Nc1ccccc1F
43 (≈ 131 µM)	COc1cccc(OC)c1C(=O)OCC(=O)N(C)c1ccccc1
> 50.8	COc1ccccc1CCNS(=O)(=O)c1ccc(C(=O)O)n1C
11.6 (≈ 34.3 µM)	CCOC(=O)c1sc(N)c(C#N)c1COC(=O)C1=COCCO1

solubility kinetic [µg/mL]	SMILES
< 0.7	O=C(/C=C/Nc1ccc(F)cc1F)c1ccc(Br)cc1
5.4 (≈ 18 µM)	O=C(Nc1cccc([N+](=O)[O-])c1)C1COc2ccccc2O1 (stereo not drawn)
44.5 (≈ 141 µM)	O=C(Cc1ccc(Cl)cc1)N1CCN(c2ccccc2)CC1
51 (≈ 113 µM)	COc1ccc(CNC(=O)COC(=O)[C@H](Cc2ccccc2)NC(=O)c2cccs2)cc1
41.1 (≈ 147 µM)	CC(c1ccccc1)C1CC(=O)N(c2ccccc2)C1=O (stereo not drawn)
4 (≈ 13.2 µM)	Cc1cc(NC(=O)C(C)Oc2ccc(C(C)(C)C)cc2)no1 (stereo not drawn)
15.7 (≈ 51.1 µM)	COc1ccc(C(C)=O)cc1COc1cccc2cccnc12
> 46.7	Cc1ccc(S(=O)(=O)N2CCN(C(=O)N(C)C)CC2)cc1
41.7	CN(CCOC(=O)c1ccc2c(c1)OCO2)C(C)(C)C.Cl
> 39.8	CCOC(=O)Cn1c(=O)c(C#N)cn(C(C)C)c1=O
53.4 (≈ 142 µM)	O=C(OCC(=O)N1CCOCC1)c1cc(-c2ccccc2)nc2ccccc12
> 49.5	O=C(COC(=O)c1c(Cl)cccc1Cl)NC1CCCCC1
0.8 (≈ 2.82 µM)	Cc1cc(/C=C(\C#N)C(=O)Nc2ccccc2F)c(C)[nH]1
40.7 (≈ 114 µM)	COc1ccccc1N1CCN(CCN2C(=O)C3CCCN3C2=O)CC1 (stereo not drawn)
> 38.3	N/C(=N\C(=S)Nc1ccccc1)c1ccccc1
> 40.2	CC1=C([N+](=O)[O-])C(c2ccc(Cl)cc2)NC(=O)N1 (stereo not drawn)
35.6 (≈ 147 µM)	O=C(Nc1ccccn1)C(=O)Nc1ccccn1
> 45.3	O=C(OCC(=O)N1CCOCC1)c1ccc(F)cc1Cl
> 65.9	CCOc1cc(N2CCOCC2)c(OCC)cc1NC(=O)CSc1nnc(N)s1

solubility kinetic [µg/mL]	SMILES
40.2 (≈ 131 µM)	COc1ccc(CCNC(=O)c2cnc3ccccc3n2)cc1
25.9 (≈ 82.4 µM)	COc1cccc(N2CCN(c3nc(C)c(C)c(=O)[nH]3)CC2)c1
< 0.5	CN(C)/C=C1\Oc2ccc3ccccc3c2C1=O
> 47	O=C(CNC(=O)[C@@H]1Cc2ccccc2CN1)NCc1ccco1
36.7 (≈ 137 µM)	O=C(Nc1ccccc1)OCc1cnc(Cl)s1
0.4 (≈ 1.23 µM)	CCn1c(=O)c(C(=O)Nc2ccccc2F)c(O)c2ccccc21
2.4 (≈ 7.38 µM)	COc1ccc(S(=O)(=O)NCCOc2ccccc2)cc1F
> 48.2	COCCCNC(=O)c1cc(-c2cccnc2)nc2ccccc12
> 54.5	NC(=O)CSc1nnc(NC(=O)c2ccc(Br)o2)s1
34.5 (≈ 123 µM)	CCOc1ccc(C(=O)NCc2ccco2)cc1Cl
> 51.8	Cc1cc(C(=O)COC(=O)C23CC4CC(CC(O)(C4)C2)C3)c(C)n1C
> 52.1	COc1ccc(NC(=O)CCC(=O)NCc2ccco2)c([N+](=O)[O-])c1
> 44.2	Cc1noc(C)c1S(=O)(=O)Nc1ccc(C(C)C)cc1
> 71.2	CCOC(=O)C1=C(C)NC(C)=C(C(=O)OCC)C1C(=O)OCC(=O)NCc1ccccc1OC
> 47	O=C(CCc1ccccc1)OCC(=O)c1cccc([N+](=O)[O-])c1
47.3 (≈ 146 µM)	COc1cc(C2NC(=O)NC(C)=C2[N+](=O)[O-])cc(OC)c1OC (stereo not drawn)
6.1 (≈ 21.8 µM)	Cc1ccc(C)c(C(=O)CN2Cc3ccccc3C2=O)c1
2.8 (≈ 8.91 µM)	O=C(NC1CCCCC1)c1ccc(-c2cccc([N+](=O)[O-])c2)o1

SMILES	solubility kinetic [µg/mL]
COc1cccc(OC)c1C(=O)N1CCNCC1.O=C(O)C(=O)O	49.7
O=c1c2ccccc2nc(/C=C/c2ccc(O)cc2)n1-c1ccccc1O	5.2 (≈ 14.6 µM)
